Test results reported in patent publication US20150105252A1, “SUBSTITUTED PYRAZOLES AS HERBICIDES” (E I DU PONT DE NEMOURS AND COMPANY, priority 2013, published 2015).

What was measured:
[1] = test system: canarygrass; test: Test D preemergence; assay type: in vivo, Phalaris minor; settings: Preemergence, scale 0 to 100
Outline: (§1)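 Visual 0-100 rating (100 = complete control) against untreated plants, made 14 to 21 days after treatment in a controlled environment. Compounds, formulated with surfactant in non-phytotoxic solvent, were applied either to seeds just sown in silt loam or to 1- to 4-leaf plants (2 to 18 cm) grown in peat-based medium.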

[2] = test system: chickweed; test: Test D preemergence; assay type: in vivo, Stellaria media; settings: Preemergence, scale 0 to 100
From the text: Seeds of plant species selected from bluegrass (annual bluegrass, Poa annua), blackgrass (Alopecurus myosuroides), canarygrass (littleseed canarygrass, Phalaris minor), chickweed (common chickweed, Stellaria media), galium (catchweed bedstraw, Galium aparine), bromegrass, downy (downy bromegrass, Bromus tectorum), field poppy (Papaver rhoeas), field violet (Viola arvensis), foxtail, green (green foxtail, Setaria viridis), deadnettle (henbit deadnettle, Lamium amplexicaule), ryegrass, Italian (Italian ryegrass, Lolium multiflorum), kochia (Kochia scoparia), lambsquarters (Chenopodium album), oilseed rape (Brassica napus), pigweed (redroot pigweed, Amaranthus retroflexus), chamomile (scentless chamomile, Matricaria inodora), speedwell (bird's-eye speedwell, Veronica persica), barley, spring (spring barley, Hordeum vulgare), wheat, spring (spring wheat, Triticum aestivum), buckwheat, wild (wild buckwheat, Polygonum convolvulus), mustard, wild (wild mustard, Sinapis arvensis), oat, wild (wild oat, Avena fatua), radish, wild (wild radish, Raphanus raphanistrum), windgrass (Apera spica-venti), Russian thistle (Salsola kali), barley, winter (winter barley, Hordeum vulgare), and wheat, winter (winter wheat, Triticum aestivum) were planted into a silt loam soil and treated preemergence with test chemicals formulated in a non-phytotoxic solvent mixture which included a surfactant.
At the same time, these species were planted in pots containing Redi-Earth® planting medium (Scotts Company, 14111 Scottslawn Road, Marysville, Ohio 43041) comprising spaghnum peat moss, vermiculite, wetting agent and starter nutrients and treated with postemergence applications of the test chemicals formulated in the same manner. Plants ranged in height from 2 to 18 cm (1- to 4-leaf stage). Treated plants and controls were maintained in a controlled growth environment for 14 to 21 days after which time all species were compared to controls and visually evaluated. Plant response ratings, summarized in Table D, are based on a scale of 0 to 100 where 0 is no effect and 100 is complete control. A dash (-) response means no test result.

[3] = test system: field poppy; test: Test D preemergence; assay type: in vivo, Papaver rhoeas; settings: Preemergence, scale 0 to 100
Outline: as §1

[4] = test system: field violet; test: Test D preemergence; assay type: in vivo, Viola arvensis; settings: Preemergence, scale 0 to 100
Outline: as §1

[5] = test system: foxtail, green; test: Test D preemergence; assay type: in vivo, Setaria viridis; settings: Preemergence, scale 0 to 100
Outline: as §1

[6] = test system: deadnettle; test: Test D preemergence; assay type: in vivo, Lamium amplexicaule; settings: Preemergence, scale 0 to 100
Outline: as §1

[7] = test system: barley, spring; test: Test D preemergence; assay type: in vivo, Hordeum vulgare; settings: Preemergence, scale 0 to 100
Outline: as §1

[8] = test system: barley, winter; test: Test D preemergence; assay type: in vivo, Hordeum vulgare; settings: Preemergence, scale 0 to 100
Outline: as §1

[9] = test system: wheat, spring; test: Test D preemergence; assay type: in vivo, Triticum aestivum; settings: Preemergence, scale 0 to 100
Outline: as §1

[10] = test system: wheat, winter; test: Test D preemergence; assay type: in vivo, Triticum aestivum; settings: Preemergence, scale 0 to 100
Outline: as §1

[11] = test system: buckwheat, wild; test: Test D preemergence; assay type: in vivo, Polygonum convolvulus; settings: Preemergence, scale 0 to 100
Outline: as §1

[12] = test system: mustard, wild; test: Test D preemergence; assay type: in vivo, Sinapis arvensis; settings: Preemergence, scale 0 to 100
Outline: as §1

[13] = test system: windgrass; test: Test D preemergence; assay type: in vivo, Apera spica-venti; settings: Preemergence, scale 0 to 100
Outline: as §1

[14] = test system: blackgrass; test: Test D postemergence; assay type: in vivo, Alopecurus myosuroides; settings: scale 0 to 100
Outline: as §1

[15] = test system: foxtail, green; test: Test D postemergence; assay type: in vivo, Setaria viridis; settings: scale 0 to 100
Outline: as §1

[16] = test system: kochia; test: Test D postemergence; assay type: in vivo, Kochia scoparia; settings: scale 0 to 100
Outline: as §1

[17] = test system: pigweed; test: Test D postemergence; assay type: in vivo, Amaranthus retroflexus; settings: scale 0 to 100
Outline: as §1

[18] = test system: barley, spring; test: Test D postemergence; assay type: in vivo, Hordeum vulgare; settings: scale 0 to 100
Outline: as §1

[19] = test system: barley, winter; test: Test D postemergence; assay type: in vivo, Hordeum vulgare; settings: scale 0 to 100
Outline: as §1

[20] = test system: buckwheat, wild; test: Test D postemergence; assay type: in vivo, Polygonum convolvulus; settings: scale 0 to 100
Outline: as §1

## CCCc1cc(C(=O)NC2CC2)nn1Cc1cc(C(F)(F)F)nn1C [Compound 202]
[1]; 31 g ai/ha
  Plant response rating, Canarygrass: 10
[1]; 62 g ai/ha
  Plant response rating, Canarygrass: 40
[1]; 125 g ai/ha
  Plant response rating, Canarygrass: 75
[1]; 250 g ai/ha
  Plant response rating, Canarygrass: 85
[2]; 31 g ai/ha
  Plant response rating, Chickweed: 100
[2]; 62 g ai/ha
  Plant response rating, Chickweed: 100
[2]; 125 g ai/ha
  Plant response rating, Chickweed: 100
[2]; 250 g ai/ha
  Plant response rating, Chickweed: 100
[3]; 62 g ai/ha
  Plant response rating, Field Poppy: 100
[3]; 125 g ai/ha
  Plant response rating, Field Poppy: 100
[3]; 250 g ai/ha
  Plant response rating, Field Poppy: 100
[4]; 62 g ai/ha
  Plant response rating, Field Violet: 25
[4]; 125 g ai/ha
  Plant response rating, Field Violet: 100
[4]; 250 g ai/ha
  Plant response rating, Field Violet: 100
[5]; 62 g ai/ha
  Plant response rating, Foxtail, Green: 35
[5]; 125 g ai/ha
  Plant response rating, Foxtail, Green: 80
[5]; 250 g ai/ha
  Plant response rating, Foxtail, Green: 100
[6]; 31 g ai/ha
  Plant response rating, Deadnettle: 100
[6]; 62 g ai/ha
  Plant response rating, Deadnettle: 100
[6]; 125 g ai/ha
  Plant response rating, Deadnettle: 100
[6]; 250 g ai/ha
  Plant response rating, Deadnettle: 100
[7]; 31 g ai/ha
  Plant response rating, Barley, Spring: 0
[7]; 62 g ai/ha
  Plant response rating, Barley, Spring: 0
[7]; 125 g ai/ha
  Plant response rating, Barley, Spring: 55
[7]; 250 g ai/ha
  Plant response rating, Barley, Spring: 65
[8]; 31 g ai/ha
  Plant response rating, Barley, Winter: 0
[8]; 62 g ai/ha
  Plant response rating, Barley, Winter: 0
[8]; 125 g ai/ha
  Plant response rating, Barley, Winter: 25
[8]; 250 g ai/ha
  Plant response rating, Barley, Winter: 45
[9]; 62 g ai/ha
  Plant response rating, Wheat, Spring: 0
[9]; 125 g ai/ha
  Plant response rating, Wheat, Spring: 10
[9]; 250 g ai/ha
  Plant response rating, Wheat, Spring: 25
[10]; 62 g ai/ha
  Plant response rating, Wheat, Winter: 5
[10]; 125 g ai/ha
  Plant response rating, Wheat, Winter: 25
[10]; 250 g ai/ha
  Plant response rating, Wheat, Winter: 60
[11]; 31 g ai/ha
  Plant response rating, Buckwheat, Wild: 35
[11]; 62 g ai/ha
  Plant response rating, Buckwheat, Wild: 60
[11]; 125 g ai/ha
  Plant response rating, Buckwheat, Wild: 100
[11]; 250 g ai/ha
  Plant response rating, Buckwheat, Wild: 100
[12]; 62 g ai/ha
  Plant response rating, Mustard, Wild: 100
[12]; 125 g ai/ha
  Plant response rating, Mustard, Wild: 100
[12]; 250 g ai/ha
  Plant response rating, Mustard, Wild: 100
[13]; 62 g ai/ha
  Plant response rating, Windgrass: 55
[13]; 125 g ai/ha
  Plant response rating, Windgrass: 75
[13]; 250 g ai/ha
  Plant response rating, Windgrass: 100
[14]; Postemergence, 31 g ai/ha
  Blackgrass plant response rating: 15
[14]; Postemergence, 125 g ai/ha
  Blackgrass plant response rating: 25
[14]; Postemergence, 250 g ai/ha
  Blackgrass plant response rating: 35
[14]; postemergence, 62 g ai/ha
  Blackgrass plant response rating: 15
[15]; Postemergence, 31 g ai/ha
  Foxtail, Green plant response rating: 20
[15]; Postemergence, 125 g ai/ha
  Foxtail, Green plant response rating: 20
[15]; Postemergence, 250 g ai/ha
  Foxtail, Green plant response rating: 30
[15]; postemergence, 62 g ai/ha
  Foxtail, Green plant response rating: 20
[16]; Postemergence, 31 g ai/ha
  Kochia plant response rating: 70
[16]; Postemergence, 125 g ai/ha
  Kochia plant response rating: 75
[16]; Postemergence, 250 g ai/ha
  Kochia plant response rating: 85
[16]; postemergence, 62 g ai/ha
  Kochia plant response rating: 70
[17]; Postemergence, 31 g ai/ha
  Pigweed plant response rating: 70
[17]; Postemergence, 125 g ai/ha
  Pigweed plant response rating: 80
[17]; Postemergence, 250 g ai/ha
  Pigweed plant response rating: 85
[17]; postemergence, 62 g ai/ha
  Pigweed plant response rating: 70
[18]; Postemergence, 31 g ai/ha
  Barley, Spring plant response rating: 20
[18]; Postemergence, 125 g ai/ha
  Barley, Spring plant response rating: 25
[18]; Postemergence, 250 g ai/ha
  Barley, Spring plant response rating: 30
[18]; postemergence, 62 g ai/ha
  Barley, Spring plant response rating: 20
[19]; Postemergence, 31 g ai/ha
  Barley, Winter plant response rating: 15
[19]; Postemergence, 125 g ai/ha
  Barley, Winter plant response rating: 15
[19]; Postemergence, 250 g ai/ha
  Barley, Winter plant response rating: 25
[19]; postemergence, 62 g ai/ha
  Barley, Winter plant response rating: 15
[20]; Postemergence, 31 g ai/ha
  Buckwheat, Wild plant response rating: 40
[20]; Postemergence, 125 g ai/ha
  Buckwheat, Wild plant response rating: 70
[20]; Postemergence, 250 g ai/ha
  Buckwheat, Wild plant response rating: 90
[20]; postemergence, 62 g ai/ha
  Buckwheat, Wild plant response rating: 40
